Key:
Assay in all cases: Anti-fungal activity of Sarcotoxin 1a in vitro (hyphal area on agar plate)
Assay type in all cases: cell-based
[1] = test system: Fusarium oxysporum F-3; details: 5-fold diluted PDA medium, 22° C. in the dark; FIG. 12
Protocol: (§1) Sarcotoxin 1a was measured for an anti-fungal activity against Fusarium oxysporum F-3, Rhizoctonia solani, and Rhizoctonia solani AG-4 1272.
(§2) It has not been known if Sarcotoxin 1a has an anti-fungal activity and how to measure the activity. Therefore, a pre-culture medium and a test medium were variously studied. The pre-culture medium, in which a lawn may be uniformly enlarged within a short period of time, was selected. The test medium, which controls the extension of hyphae as much as possible and allows easy confirmation, was selected.
(§3) (i) Czapek's modified medium (10 g of sucrose, 0.5 g of MgSO4.7H2O, 2.0 g of NaNO3, 0.01 g of Fe2(SO4)3, 1.0 g of K2HPO4, 0.5 g of KCl, 15 g of agarose per liter, pH 6.8 to 7.0; used for Rhizoctonia solani AG-4 1272), (ii) 5-fold diluted PDA medium (7.8 g of Bacto (Trademark) Poteto Dextrose Agar, 12 g of agarose per liter; used for Fusarium oxysporum F-3), (iii) Na2HPO4—NaH2PO4 buffer (15 g/l agarose, pH 5.8; used for Rhizoctonia solani).
(§4) The media for detection were autoclaved. When the media was cooled to 50° C., Sarcotoxin 1a (synthesized by a peptide synthesis and purified to 99% or more by HPLC) was added to each medium. Each of the resulting media was dispensed into a 12-well microplate at 400 μl per well and solidified.
(§5) Fusarium oxysporum F-3, Rhizoctonia solani, and Rhizoctonia solani AG-4 1272 were respectively pre-cultured in a PDA media (39 g/l Bacto (Trademark) Poteto Dextrose Agar) at 22° C. for 2 days.
(§6) An outermost lawn of each hypha spreading over almost the entire surface of the PDA medium of a 9 cm-petri dish was punched with a cork borer with a diameter of 4 mm, and each fungi was placed in the center of a well of a test plate in such a manner that the surface of the layer faced down. Each test plate for detection was kept at 22° C. in the dark.
(§7) Each test plate inoculated with the above-mentioned pathogenic fungi was measured for the size of each hypha growing under transmitted light at established periods, and the area of each hypha and a standard deviation were calculated (see FIGS. 12, 13, and 14). […]

[2] = test system: Rhizoctonia solani AG-4 1272; details: Czapek's modified medium, 22° C. in the dark; FIG. 13
Protocol: as §1, §2, §3, §4, §5, §6, §7

[3] = test system: Rhizoctonia solani; details: Na2HPO4-NaH2PO4 buffer agarose pH 5.8, 22° C. in the dark; FIG. 14
Protocol: as §1, §2, §3, §4, §5, §6, §7

Measured: anti-fungal properties (area of each hypha)

Sarcotoxin 1a (GWLKKIGKKIERVGQHTRDATIQGLGIAQQAANVAATAR) [anti-bacterial peptide derived from Boettherisca peregrina (Diptera insect); synthesized by a peptide synthesis and purified to 99% or more by HPLC]
concentration-dependent manner: all assays above
